Source: patent US12636274B2, “Pharmaceutical compositions and methods for systemic treatment of solid tumors” (7 HILLS INTERESTS LLC, priority 2014, dated 2026)

Key:
[1] = target: T1, α4β7/MAcDAM-1 (Homo sapiens, UniProt P13612+P26010); experiment: Integrin activation, adhesion α4β7/MAcDAM-1; format: cell-based; conditions: 50% serum; n = 3; read-out: Integrin Selectivity EC50 α4β7/MAcDAM-1
T1 sequence (P13612 34-1032): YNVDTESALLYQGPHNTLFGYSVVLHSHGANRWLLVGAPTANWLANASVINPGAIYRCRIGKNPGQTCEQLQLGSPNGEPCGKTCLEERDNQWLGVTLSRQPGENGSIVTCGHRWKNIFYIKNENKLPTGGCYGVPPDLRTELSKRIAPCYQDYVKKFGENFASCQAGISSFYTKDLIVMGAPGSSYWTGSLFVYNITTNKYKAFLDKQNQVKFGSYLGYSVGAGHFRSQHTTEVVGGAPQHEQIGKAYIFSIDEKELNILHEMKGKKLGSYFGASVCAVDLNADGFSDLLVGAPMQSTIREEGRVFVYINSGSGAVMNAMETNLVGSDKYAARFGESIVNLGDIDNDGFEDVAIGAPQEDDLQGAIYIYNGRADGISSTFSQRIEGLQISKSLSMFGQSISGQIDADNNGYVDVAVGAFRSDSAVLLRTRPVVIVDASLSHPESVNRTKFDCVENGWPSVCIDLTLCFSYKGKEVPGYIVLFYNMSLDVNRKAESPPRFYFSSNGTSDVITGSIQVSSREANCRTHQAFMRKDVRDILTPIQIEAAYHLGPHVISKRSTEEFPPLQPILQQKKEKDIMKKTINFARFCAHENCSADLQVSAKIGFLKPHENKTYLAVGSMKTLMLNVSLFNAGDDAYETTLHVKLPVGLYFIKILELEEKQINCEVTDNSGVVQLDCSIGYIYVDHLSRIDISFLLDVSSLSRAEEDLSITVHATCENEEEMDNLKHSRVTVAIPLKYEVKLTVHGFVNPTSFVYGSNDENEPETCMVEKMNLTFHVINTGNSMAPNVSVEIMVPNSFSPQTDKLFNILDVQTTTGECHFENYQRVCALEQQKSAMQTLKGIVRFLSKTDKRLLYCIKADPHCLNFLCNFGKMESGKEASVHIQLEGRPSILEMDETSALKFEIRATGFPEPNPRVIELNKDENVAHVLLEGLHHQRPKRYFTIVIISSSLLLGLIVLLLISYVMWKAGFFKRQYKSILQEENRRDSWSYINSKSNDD
T1 sequence (P26010 20-798): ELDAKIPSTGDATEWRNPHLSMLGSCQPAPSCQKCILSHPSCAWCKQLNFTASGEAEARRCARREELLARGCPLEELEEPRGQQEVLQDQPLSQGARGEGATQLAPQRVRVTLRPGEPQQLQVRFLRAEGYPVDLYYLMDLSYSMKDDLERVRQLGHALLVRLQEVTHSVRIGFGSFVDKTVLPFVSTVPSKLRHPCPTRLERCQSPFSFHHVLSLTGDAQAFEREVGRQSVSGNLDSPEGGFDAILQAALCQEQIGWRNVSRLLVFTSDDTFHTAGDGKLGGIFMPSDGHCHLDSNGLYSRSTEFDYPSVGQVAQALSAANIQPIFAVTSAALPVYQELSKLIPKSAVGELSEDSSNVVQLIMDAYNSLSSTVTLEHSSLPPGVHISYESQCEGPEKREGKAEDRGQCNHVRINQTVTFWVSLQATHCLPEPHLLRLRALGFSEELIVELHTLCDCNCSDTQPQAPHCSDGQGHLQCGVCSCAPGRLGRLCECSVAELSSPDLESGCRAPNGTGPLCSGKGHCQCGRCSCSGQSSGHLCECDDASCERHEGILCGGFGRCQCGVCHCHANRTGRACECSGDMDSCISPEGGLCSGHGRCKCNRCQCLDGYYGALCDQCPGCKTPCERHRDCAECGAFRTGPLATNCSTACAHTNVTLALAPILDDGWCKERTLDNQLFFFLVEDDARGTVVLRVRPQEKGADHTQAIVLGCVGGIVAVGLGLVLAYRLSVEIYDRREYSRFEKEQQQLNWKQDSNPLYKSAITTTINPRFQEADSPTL
Source text: Activating all integrins is necessary for firm endothelial cell adhesion for extravasation.

[2] = test system: CT26 colon cancer syngeneic tumor; experiment: Study 1: CT26 syngeneic tumor model in Balb/c mice; format: in vivo, Mouse (Mus musculus)
Description: Mouse colon carcinoma CT26 cells were obtained from American Type Culture Collection (ATCC), USA. Cells were grown in RPMI-1640 medium (Sigma, Cat # R6504) supplemented with 10% FBS (Invitrogen, Cat #10438-026), and 1% penicillin streptomycin (Thermo Fisher Scientific, Cat #15140-122). To establish allografts, 1 million CT26 cells were suspended in 50 μL of serum-free medium and mixed at 1:1 ratio with matrigel before implanting subcutaneously into the right flank of mice.
Prior to inoculation, the skin on the injection site was swabbed with alcohol. To establish allografts, CT26 cells were suspended in serum free medium at a concentration of (1×10^6)/50 μL, mixed with equal volume of matrigel (1:1 ratio) and 100 μL of this mixture was injected to each mouse by subcutaneous implantation using a 1 mL BD syringe attached to a 24 gauge needle.
CT26 tumor xenografts were measured after approximately 1 week of cell inoculation when they become palpable. When the average tumor volume reaches around 110 mm^3, animals were randomized into treatment groups group maintaining the average tumor volume of each group similar across groups for Study 1 and Study 2. In Study 3, the animals were randomized on the basis of body weights +1 day post cell implantation.
Tumor dimensions (length and breadth) were measured on days 0 (animal randomization based on tumor volume) and thrice weekly thereafter until study termination. Tumor volumes were calculated using the formula (b^2*l)*0.52 where l=length, b=breadth (Dusan Djokovic et al., BMC Cancer, 2010, 10:641). Tumor growth inhibition was calculated after normalizing the tumor volume on a given day to that on day 1.
Mean body weight loss and percent changes were calculated for each group. Similarly, mean tumor volume and percent tumor growth inhibition were calculated. The percent tumor growth inhibition (% TGI) as a function of anti-tumor efficacy were computed with respect to untreated vehicle control by comparing to the tumor volumes of day 1 using formula described below: % TGI=[1−(Treatment TVFinal−Treatment TVInitial)/(Control TVFinal−Control TVInitial)]*100
The test agent, Compound 1 was evaluated in CT26 syngeneic tumor model in Balb/c mice. Compound 1 was administered in mice when the starting tumor volume reached 109±7.1 mm^3 eight days after implantation of CT26 cells.

Which EC50 [1] does the source give for O=C(OCCOCCOCCOC(=O)N(Cc1cccs1)Cc1cccs1)N(Cc1cccs1)Cc1cccs1 [Compound 1, 3-oxo-1-(2-thienyl)-2-(2-thienylmethyl)-4,7,10-trioxa-2-azadodecan-12-yl bis(2-thienylmethyl)carbamate] here?
Its EC50 is 10 ± 2.1 µM.

What about the “% Tumor Growth Inhibition” value ([2]; Study 1, 1 mg/kg IP QD at 4 h, Day 4) of the same compound?
The value was 36.1%.

What about the “% Tumor Growth Inhibition” value ([2]; Study 1, 1 mg/kg IP QD at 4 h, Day 6) of the same compound?
Its value is 41.4%.

What about the “% Tumor Growth Inhibition” value ([2]; Study 1, 1 mg/kg IP QD at 4 h, Day 8) of the same compound?
The value was 61.5%.

What about the “% Tumor Growth Inhibition” value ([2]; Study 1, 1 mg/kg IP QD at 4 h, Day 11) of the same compound?
Its value is 64.4%.

What about the “% Tumor Growth Inhibition” value ([2]; Study 1, 1 mg/kg IP QD at 4 h, Day 13) of the same compound?
Its value is 55.4%.

And the “% Tumor Growth Inhibition” value ([2]; Study 1, 20 mg/kg PO QD at 4 h, Day 4)?
Its value is −6.1%.

What about the “% Tumor Growth Inhibition” value ([2]; Study 1, 20 mg/kg PO QD at 4 h, Day 6) of the same compound?
Its value is 16.5%.

And the “% Tumor Growth Inhibition” value ([2]; Study 1, 20 mg/kg PO QD at 4 h, Day 8)?
The value was 38.2%.

What about the “% Tumor Growth Inhibition” value ([2]; Study 1, 20 mg/kg PO QD at 4 h, Day 11) of the same compound?
The value was 42.2%.

What about the “% Tumor Growth Inhibition” value ([2]; Study 1, 20 mg/kg PO QD at 4 h, Day 13) of the same compound?
The value was 36.2%.

And the “tolerability in term of body weights of animals” value ([2]; Study 1, oral (20 mg/kg QD) and intraperitoneal (1 mg/kg QD) routes)?
The value was “well tolerated”.

What about the “growth of established CT26 tumors” value ([2]; single agent, orally or intraperitoneally once daily for up to 30 days) of the same compound?
The value was “delayed the growth”.
